Data published in ChEMBL document CHEMBL5500412, “Discovery of Highly Selective, Potent, Covalent, and Orally Bioavailable Factor XIIa Inhibitors for the Treatment of Thrombo-Inflammation” (J Med Chem, 2024).
pIC50: −log10 of the molar value. Activity calls are given as the source filed them. The calls are words filed in the database; no cut-off is given here.

Legend:
Coagulation factor XII [1] = target: T1, Coagulation factor XII (Homo sapiens, UniProt P00748); assay: Inhibition of human FXIIa (unknown origin)
T1 sequence (P00748 whole entry): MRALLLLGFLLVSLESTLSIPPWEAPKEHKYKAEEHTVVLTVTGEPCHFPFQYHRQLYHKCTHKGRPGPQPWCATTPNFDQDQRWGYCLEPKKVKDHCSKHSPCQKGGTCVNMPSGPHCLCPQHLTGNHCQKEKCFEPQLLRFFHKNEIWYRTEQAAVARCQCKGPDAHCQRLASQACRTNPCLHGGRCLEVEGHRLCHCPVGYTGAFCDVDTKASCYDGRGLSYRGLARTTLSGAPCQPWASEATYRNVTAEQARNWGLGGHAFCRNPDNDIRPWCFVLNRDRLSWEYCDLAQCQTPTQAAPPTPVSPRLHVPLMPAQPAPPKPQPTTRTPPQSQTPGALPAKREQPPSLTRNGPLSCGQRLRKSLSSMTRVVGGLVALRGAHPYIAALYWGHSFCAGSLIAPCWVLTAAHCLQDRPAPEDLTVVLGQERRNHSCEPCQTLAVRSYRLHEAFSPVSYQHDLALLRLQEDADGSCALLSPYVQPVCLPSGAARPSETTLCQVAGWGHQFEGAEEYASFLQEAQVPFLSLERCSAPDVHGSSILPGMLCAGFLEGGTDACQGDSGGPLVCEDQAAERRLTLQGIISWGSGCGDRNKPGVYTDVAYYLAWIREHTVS

[2] = target: T2, Coagulation factor XII (Homo sapiens) (UniProt P00748); assay: Inhibition of FXIIa (unknown origin) using H-D-Pro-Phe-Arg-pNA as substrate at 500 nM incubated for 20 mins followed by substrate addition by spectrophotometric analysis relative to control
T2 sequence (whole entry): T1 sequence (P00748 whole entry)

Coagulation factor XII [3] = target: T1, Coagulation factor XII; assay: Inhibition of FXIIa (unknown origin) using H-D-Pro-Phe-Arg-pNA as substrate incubated for 20 mins followed by substrate addition by spectrophotometric analysis
RAW264.7 [4] = assay: Antiinflammatory activity in mouse RAW264.7 cells assessed as inhibition of LPS-induced IL-1 beta expression at 10 uM preincubated for 12 hrs followed by LPS stimulation and measured after 12 hrs by real time quantitative RT-PCR assay; type: functional, cell-based; settings: time 24.0 hrs
Chymotrypsin = Chymotrypsin (Homo sapiens, UniProt Q99895+P17538+P40313+Q6GPI1); assay: Inhibition of Chymotrypsin (unknown origin) using N-Suc-Ala-Ala-Pro-Phe-pNA as chromogenic substrate incubated for 20 mins followed by substrate addition by spectrophotometric analysis; type: protein assay
[5] = Selectivity index, ratio of IC50 for FXa (unknown origin) to IC50 for FXIIa (unknown origin)
[6] = Selectivity index, ratio of IC50 for trypsin (unknown origin) to IC50 for FXIIa (unknown origin)
Plasma [7] = assay: Anticoagulant activity in human plasma assessed as prolongation of activated partial thromboplastin time at 300 uM incubated for 2 mins by aPTT reagent based assay relative to control; type: functional
Plasminogen = Plasminogen (Homo sapiens, UniProt P00747); assay: Inhibition of plasmin (unknown origin) using PyroGlu-Phe-Lys-pNA.HCl as chromogenic substrate incubated for 20 mins followed by substrate addition by spectrophotometric analysis
Trypsin = Trypsin (Homo sapiens, UniProt P07477+P07478+P35030); assay: Inhibition of trypsin (unknown origin) using Bz-lle-Glu(gamma-OR)-Gly-Arg-pNA.HCl as chromogenic substrate incubated for 20 mins followed by substrate addition by spectrophotometric analysis; type: protein assay
Coagulation factor X = Coagulation factor X (Homo sapiens, UniProt P00742); assay: Inhibition of FXa (unknown origin) using Z-D-Arg-Gly-Arg-pNA.2HCl as chromogenic substrate incubated for 20 mins followed by substrate addition by spectrophotometric analysis
RAW264.7 [8] = assay: Antiinflammatory activity in mouse RAW264.7 cells assessed as inhibition of LPS-induced IL-6 expression at 10 uM preincubated for 12 hrs followed by LPS stimulation and measured after 12 hrs by real time quantitative RT-PCR assay; type: functional, cell-based; settings: time 24.0 hrs
[9] = Selectivity index, ratio of IC50 for plasmin (unknown origin) to IC50 for FXIIa (unknown origin)
Coagulation factor XI = Coagulation factor XI (Homo sapiens, UniProt P03951); assay: Inhibition of FXIa (unknown origin) using p-Glu-Pro-Arg-pNA.HCl as chromogenic substrate incubated for 20 mins followed by substrate addition by spectrophotometric analysis
Prothrombin = Prothrombin (Homo sapiens, UniProt P00734); assay: Inhibition of thrombin (unknown origin) using H-D-Phe-Pip-Arg-pNA-2HCl as substrate incubated for 20 mins followed by substrate addition by spectrophotometric analysis
Plasma kallikrein = Plasma kallikrein (Homo sapiens, UniProt P03952); assay: Inhibition of PKal (unknown origin) using H-D-Pro-Phe-Arg-pNA-2HCl as substrate incubated for 20 mins followed by substrate addition by spectrophotometric analysis
[10] = Selectivity index, ratio of IC50 for tPA (unknown origin) to IC50 for FXIIa (unknown origin)
[11] = target: Tissue-type plasminogen activator (Homo sapiens, UniProt P00750); assay: Inhibition of tPA (unknown origin) using H-D-lle-Pro-Arg-pNA-2HCl as chromogenic substrate incubated for 20 mins followed by substrate addition by spectrophotometric analysis
[12] = Selectivity index, ratio of IC50 for FXIa (unknown origin) to IC50 for FXIIa (unknown origin)
Plasma [13] = assay: Anticoagulant activity in human plasma assessed as prolongation of […] time at 300 uM incubated for 2 mins by PT reagent based assay; type: functional, cell-free
[14] = Selectivity index, ratio of IC50 for thrombin (unknown origin) to IC50 for FXIIa (unknown origin)
[15] = Selectivity index, ratio of IC50 for chymotrypsin (unknown origin) to IC50 for FXIIa (unknown origin)
[16] = Selectivity index, ratio of IC50 for PKal (unknown origin) to IC50 for FXIIa (unknown origin)
[17] = Toxicity in BALB/c mouse assessed as prolongation of bleeding time at 30 mg/kg, po measured after 90 mins; type: organism-based; settings: in vivo, 1.5 h

Chain of Plasma kallikrein (P03952 20-390 limits assumed): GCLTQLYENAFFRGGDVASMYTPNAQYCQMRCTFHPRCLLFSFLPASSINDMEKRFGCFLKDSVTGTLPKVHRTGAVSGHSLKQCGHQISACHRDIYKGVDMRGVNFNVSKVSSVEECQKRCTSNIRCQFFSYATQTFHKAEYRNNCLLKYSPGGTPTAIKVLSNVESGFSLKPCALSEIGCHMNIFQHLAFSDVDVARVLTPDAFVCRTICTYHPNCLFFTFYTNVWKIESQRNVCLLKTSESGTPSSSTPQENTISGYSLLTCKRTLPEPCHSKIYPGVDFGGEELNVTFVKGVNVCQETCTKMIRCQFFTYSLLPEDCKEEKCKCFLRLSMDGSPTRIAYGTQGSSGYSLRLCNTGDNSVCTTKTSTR
Chain of Plasma kallikrein (P03952 391-638 limits assumed): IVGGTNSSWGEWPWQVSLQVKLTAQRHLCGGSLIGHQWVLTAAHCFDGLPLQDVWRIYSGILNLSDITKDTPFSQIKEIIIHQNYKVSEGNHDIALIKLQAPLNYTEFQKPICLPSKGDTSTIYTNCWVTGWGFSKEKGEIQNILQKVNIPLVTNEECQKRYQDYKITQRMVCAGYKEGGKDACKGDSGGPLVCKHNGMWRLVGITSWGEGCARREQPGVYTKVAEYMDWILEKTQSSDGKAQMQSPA
Chain of Plasminogen (P00747 97-580 limits assumed): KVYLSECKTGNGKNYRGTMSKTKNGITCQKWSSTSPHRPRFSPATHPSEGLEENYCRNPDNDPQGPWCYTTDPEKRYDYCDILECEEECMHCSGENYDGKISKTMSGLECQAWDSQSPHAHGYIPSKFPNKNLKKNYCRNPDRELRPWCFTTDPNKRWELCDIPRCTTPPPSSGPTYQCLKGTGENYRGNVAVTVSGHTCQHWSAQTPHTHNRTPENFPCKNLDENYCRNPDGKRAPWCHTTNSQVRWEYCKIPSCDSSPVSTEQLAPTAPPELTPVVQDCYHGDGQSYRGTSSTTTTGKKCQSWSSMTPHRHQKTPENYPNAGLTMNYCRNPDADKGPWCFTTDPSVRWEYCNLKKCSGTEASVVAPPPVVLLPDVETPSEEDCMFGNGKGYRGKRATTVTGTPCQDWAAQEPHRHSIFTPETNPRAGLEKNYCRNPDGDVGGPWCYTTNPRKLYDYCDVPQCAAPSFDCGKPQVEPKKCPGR
Chain of Plasminogen (P00747 581-810 limits assumed): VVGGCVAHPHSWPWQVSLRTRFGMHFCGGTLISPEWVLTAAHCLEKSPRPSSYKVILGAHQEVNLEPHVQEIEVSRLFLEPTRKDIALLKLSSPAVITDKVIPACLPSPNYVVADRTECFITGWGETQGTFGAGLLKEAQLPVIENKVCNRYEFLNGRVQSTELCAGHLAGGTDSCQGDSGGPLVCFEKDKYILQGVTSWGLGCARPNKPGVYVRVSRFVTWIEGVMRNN
Chain of Coagulation factor XI (P03951 19-387 limits assumed): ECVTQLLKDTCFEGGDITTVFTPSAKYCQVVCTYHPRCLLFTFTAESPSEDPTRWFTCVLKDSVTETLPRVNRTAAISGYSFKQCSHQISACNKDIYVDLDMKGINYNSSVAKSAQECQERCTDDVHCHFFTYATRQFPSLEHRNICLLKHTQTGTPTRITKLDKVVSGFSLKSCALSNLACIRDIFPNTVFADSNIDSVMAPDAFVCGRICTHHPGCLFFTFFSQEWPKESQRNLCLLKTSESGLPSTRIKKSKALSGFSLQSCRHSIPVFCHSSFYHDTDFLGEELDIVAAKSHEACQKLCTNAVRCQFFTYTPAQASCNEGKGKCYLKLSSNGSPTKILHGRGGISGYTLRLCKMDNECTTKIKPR
Chain of Coagulation factor XI (P03951 388-625 limits assumed): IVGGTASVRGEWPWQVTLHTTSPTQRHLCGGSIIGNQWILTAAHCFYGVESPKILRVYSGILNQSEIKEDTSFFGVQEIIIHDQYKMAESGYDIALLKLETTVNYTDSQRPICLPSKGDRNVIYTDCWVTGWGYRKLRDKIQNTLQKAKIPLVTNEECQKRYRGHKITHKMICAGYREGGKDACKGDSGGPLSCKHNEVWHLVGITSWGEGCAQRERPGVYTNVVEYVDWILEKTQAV
Chain of Tissue-type plasminogen activator (P00750 whole entry): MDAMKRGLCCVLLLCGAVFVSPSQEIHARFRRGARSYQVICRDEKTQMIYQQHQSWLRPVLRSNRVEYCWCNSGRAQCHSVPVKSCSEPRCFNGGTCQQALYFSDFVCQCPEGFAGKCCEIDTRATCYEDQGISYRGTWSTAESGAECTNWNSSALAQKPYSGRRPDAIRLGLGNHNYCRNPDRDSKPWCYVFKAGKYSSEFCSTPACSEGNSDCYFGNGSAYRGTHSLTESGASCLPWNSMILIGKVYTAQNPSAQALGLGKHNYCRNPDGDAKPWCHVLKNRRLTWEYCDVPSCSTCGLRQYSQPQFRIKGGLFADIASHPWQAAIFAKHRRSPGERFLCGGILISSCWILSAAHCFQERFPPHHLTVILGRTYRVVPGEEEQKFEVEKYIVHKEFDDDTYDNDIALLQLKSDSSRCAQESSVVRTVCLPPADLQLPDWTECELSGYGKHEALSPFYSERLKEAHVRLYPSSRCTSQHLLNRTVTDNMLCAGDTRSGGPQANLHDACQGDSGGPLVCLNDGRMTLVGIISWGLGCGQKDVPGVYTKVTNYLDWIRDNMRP
Chain of Coagulation factor X (P00742 41-179 limits assumed): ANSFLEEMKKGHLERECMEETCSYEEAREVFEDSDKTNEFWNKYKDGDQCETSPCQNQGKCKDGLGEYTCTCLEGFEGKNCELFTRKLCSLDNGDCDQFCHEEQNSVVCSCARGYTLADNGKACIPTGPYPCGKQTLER
Chain of Coagulation factor X (P00742 235-488 limits assumed): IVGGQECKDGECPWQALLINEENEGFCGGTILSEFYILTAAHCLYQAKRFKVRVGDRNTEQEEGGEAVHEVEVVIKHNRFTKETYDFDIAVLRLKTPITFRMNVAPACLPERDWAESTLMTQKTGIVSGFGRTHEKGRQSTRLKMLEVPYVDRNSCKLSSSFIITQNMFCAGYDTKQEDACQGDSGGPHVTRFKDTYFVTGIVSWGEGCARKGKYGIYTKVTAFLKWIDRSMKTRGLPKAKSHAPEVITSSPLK

| inhibition [2] [%] | pIC50 (Coagulation factor XII [3]) | SMILES | also measured |
| --- | --- | --- | --- |
|  |  | Nc1nccc2c(NCC34COC(COc5ccn6ccnc6c5)(C3)C4)cccc12 | pIC50 (Coagulation factor XII [1]): 7.00 |
| 62 |  | Nc1nc(-c2ccccn2)nn1C(=O)c1ccc(NC(=O)c2cccc3c2CCCC3)cc1 |  |
| 57 |  | CN1CCN(c2ccc(C(=O)n3nc(-c4cccnc4)nc3N)cc2)CC1 |  |
| 21 |  | CN1CCN(c2cccc(C(=O)n3nc(-c4ccccn4)nc3N)c2)CC1 |  |
| 40 |  | Nc1nc(-c2ccccn2)nn1C(=O)c1cccc(N2CCC3(CC2)OCCO3)c1 |  |
| 43 |  | COc1cc(C(=O)n2nc(-c3ccccn3)nc2N)ccc1N1CCN(C(C)C)CC1 |  |
| 28 |  | Nc1nc(-c2ccccn2)nn1C(=O)c1ccc(NC(=O)c2ccccc2)cc1F |  |
| 71 | 6.71 | CN1CCN(c2ccc(C(=O)n3nc(-c4ccncc4)nc3N)cc2)CC1 |  |
|  | 7.41 | Nc1nc(-c2ccccn2)nn1C(=O)c1ccc(N2CCN(C3COC3)CC2)c2ccccc12 | Activity (RAW264.7 [4]): Active; IC50 (Chymotrypsin): > 25000 nM; Ratio IC50 [5]: > 640; Ratio IC50 [6]: > 640; Activity (Plasma [7]): 472%; pIC50 (Plasminogen): < 4.60; IC50 (Trypsin): > 25000 nM; pIC50 (Coagulation factor X): < 4.60; Activity (RAW264.7 [8]): Active; Ratio IC50 [9]: > 640; pIC50 (Coagulation factor XI): < 4.60; pIC50 (Prothrombin): 4.70; pIC50 (Plasma kallikrein): < 4.60; Ratio IC50 [10]: > 640; pIC50 [11]: < 4.60; Ratio IC50 [12]: > 640; Activity (Plasma [13]): inactive; Ratio IC50 [14]: 830; Ratio IC50 [15]: > 640; Ratio IC50 [16]: > 640 |
| 21 |  | Nc1nc(-c2ccccn2)nn1C(=O)c1ccc(N2CCC3(CC2)CC3)cc1 |  |
| 28 |  | Cc1cc(C(=O)n2nc(-c3ccccn3)nc2N)cc(C)c1N1CCN(C(C)C)CC1 |  |
| 72 | 6.72 | CN(C)CCN(C)c1ccc(C(=O)n2nc(-c3ccccn3)nc2N)cc1 |  |
| 72 | 6.74 | CN1CCN(c2ccc(C(=O)n3nc(-c4ccccn4)nc3N)cc2)CC1 |  |
| 39 |  | Nc1nc(-c2ccccn2)nn1C(=O)c1ccc(NCc2ccccc2)cc1 |  |
|  | 7.02 | CC(C)S(=O)(=O)N1CCN(c2ccc(C(=O)n3nc(-c4ccccn4)nc3N)c3ccccc23)CC1 |  |
| 9 |  | Nc1nc(-c2ccccn2)nn1C(=O)c1ccc(NC(=O)c2ccccc2)c(F)c1 |  |
|  | 7.30 | Nc1nc(-c2ccccn2)nn1C(=O)c1ccc(N2CCN(C3CCCC3)CC2)c2ccccc12 |  |
| 62 |  | Nc1nc(-c2ccccn2)nn1C(=O)c1ccc(NC(=O)c2cccc3c2OCCO3)cc1 |  |
|  | 7.40 | Nc1nc(-c2ccccn2)nn1C(=O)c1ccc(N2CCN(C3CC3)CC2)c2ccccc12 |  |

| inhibition [2] [%] | pIC50 (Coagulation factor XII [3]) | SMILES | also measured |
| --- | --- | --- | --- |
| 70 | 6.69 | Nc1nc(-c2ccccn2)nn1C(=O)c1ccc(N2CCC3(CC2)OCCO3)cc1 |  |
| 28 |  | CC(C)C[C@@H](NC1CCCC1)C(=O)Nc1ccc(C(=O)n2nc(-c3ccccn3)nc2N)cc1 |  |
|  |  | Cc1cc(N2CCn3c(nnc3C(F)(F)F)[C@@H]2C)ncc1CNc1cccc2c(N)nccc12 | pIC50 (Coagulation factor XII [1]): 8.00 |
| 77 | 7.09 | CC(C)N1CCN(c2ccc(C(=O)n3nc(-c4ccc(Cl)cn4)nc3N)cc2)CC1 |  |
| 33 |  | Nc1nc(-c2ccccn2)nn1C(=O)c1ccc(NC(=O)[C@@H](CC2CCCCC2)NC2CCCCC2)cc1 |  |
| 24 |  | Nc1nc(-c2ccccn2)nn1C(=O)c1ccc(NC(=O)[C@@H](Cc2ccccc2)NC2CCCCC2)cc1 |  |
|  | 7.07 | CN(C)C(=O)N1CCN(c2ccc(C(=O)n3nc(-c4ccccn4)nc3N)c3ccccc23)CC1 |  |
|  | 7.25 | Nc1nc(-c2ccccn2)nn1C(=O)c1ccc(N2CCN(C3CCCCC3)CC2)c2ccccc12 |  |
| 82 | 7.32 | Cc1cc(C(=O)n2nc(-c3ccccn3)nc2N)ccc1N1CCN(C(C)C)CC1 | Activity (RAW264.7 [4]): Active; Activity (RAW264.7 [8]): Active |
| 79 | 7.10 | CC(C)N1CCN(c2ccc(C(=O)n3nc(-c4ccc(F)cn4)nc3N)cc2)CC1 | Activity (RAW264.7 [4]): Active; Activity (RAW264.7 [8]): Active |
| 63 |  | Nc1nc(-c2ccccn2)nn1C(=O)c1ccc(N2CCN(CCO)CC2)cc1 |  |
|  |  | O=C(NC[C@H]1CN(c2ccc(N3CCOCC3=O)cc2)C(=O)O1)c1ccc(Cl)s1 [RIVAROXABAN] | Activity [17]: Toxic |
|  | 7.29 | CC(C)N1CCN(c2ccc(C(=O)n3nc(-c4ccccn4)nc3N)c3c2OCCO3)CC1 |  |
| 65 |  | COCCN1CCN(c2ccc(C(=O)n3nc(-c4ccccn4)nc3N)cc2)CC1 |  |
| 79 | 7.14 | CC(C)N1CCN(c2ccc(C(=O)n3nc(-c4ccccn4)nc3N)cc2)CC1 |  |
| 34 |  | CN1CCC(c2ccc(C(=O)n3nc(-c4ccccn4)nc3N)cc2)CC1 |  |
| 60 |  | Nc1nc(-c2ccccn2)nn1C(=O)c1ccc(NC(=O)c2cccc3ccccc23)cc1 |  |
| 74 | 6.79 | Nc1nc(-c2ccccn2)nn1C(=O)c1ccc(NC(=O)c2ccccc2)cc1 | IC50 (Chymotrypsin): > 5000 nM; Ratio IC50 [5]: > 30; Ratio IC50 [6]: > 30; Activity (Plasma [7]): 35%; pIC50 (Plasminogen): < 5.30; IC50 (Trypsin): > 5000 nM; Ratio IC50 [9]: > 30; pIC50 (Coagulation factor XI): < 4.60; pIC50 (Prothrombin): 4.80; pIC50 (Plasma kallikrein): < 4.60; Ratio IC50 [10]: > 30; pIC50 [11]: < 5.30; Ratio IC50 [12]: > 150; Ratio IC50 [14]: 770; Ratio IC50 [15]: > 30; Ratio IC50 [16]: > 150 |

| SMILES | inhibition [2] [%] | pIC50 (Coagulation factor XII [3]) | also measured |
| --- | --- | --- | --- |
| CN1CC=C(c2ccc(C(=O)n3nc(-c4ccccn4)nc3N)cc2)CC1 | 40 |  |  |
